Columns and labels:
Format in all cases: cell-based
[1] = Cell growth assay (WST-8) (Compounds B1-B278); details: 96 h; T47D cell line; WST-8, 4 days; read-out: Cell Growth Inhibition in T47D cell line IC50
Protocol: Cell Growth Assay. The cells are seeded at certain concentration (e.g., at 1500/well) in multi-well plates overnight. Cells are subsequently treated with the compounds. A certain period of time (e.g., 4 days) after the compound treatment, 10% WST-8 reagent is added to the culture medium and incubate under certain condiction (e.g., in a CO2 incubator at 37° C. for 2.5 hours). The absorbance is measured on each sample using a microplate reader at certain wavelength (e.g., 450 nm). The relative absorbance is calculated against the vehicle control from three individually repeats.
Cell Growth Assay. The cells were seeded at 1500/well in 96 well plates overnight. One day after the seeding, they were treated with indicated doses of compounds respectively. 4 days after the compound treatment, 10% WST-8 reagent was added to the culture medium and incubate in a CO2 incubator at 37° C. for 2.5 hours. Before reading, the plate was mixed gently on an orbital shaker for one minute to ensure homogeneous distribution of color. The absorbance was measured of each sample using a microplate reader at a wavelength of 450 nm. The relative absorbance was calculated against the vehicle control from three individually repeats.

ER [2] = molecular target: T1, ER (Homo sapiens (Human), UniProt P03372); experiment: In-cell western blot analysis of relative ER percentage (Compounds B1-B278); details: ER degradation, 16 hours, read-out: ICW DC50
Protocol: In-cell western blot analysis. Cells are seeded in multi-well plates (e.g., at 40,000 or 10,000 cells/well). Diluted compounds at certain concentration are added (final 0.5% DMSO) and cells are incubated for […] (e.g., 16 hours). Formaldehyde (e.g., PBS:FA=9:1) is added and followed by washing with PBS. The cells are blocked with Licor blocking buffer (Li-Cor). The relative ER percentage in treated cells are obtained by comparing the values of treated wells to those in untreated and DMSO-treated wells as 100%.
In-cell western blot analysis. a. seed cells in black-sided/clear bottom 96- or 384-well plates at 40,000 or 10,000 cells/well, overnight; b. add diluted compounds (final 0.5% DMSO), 16 hours. 16 h later, remove medium, add 100 μL or 25 μL of 3.7-4.0% formaldehyde (PBS:FA=9:1), RT 20 min, no shaking; c. wash with PBS, and permeabilized with 100 μL or 25 μL/well of 1×PBS+0.1% Triton X-100 10 minutes; d. block with 100 μL or 25 μL Licor blocking buffer (Li-Cor), RT 1 h, moderate shaking; d. Add 100 μL or 25 μL of anti-ER (cs-8644, 1:500-1,000)+GAPDH(Millipore MAB374, 1:1000) in Block+0.05% Tween 20. RT 2 h, gentle shaking. Negative control: cells plus secondary antibodies (no primary antibodies); e. wash×4 with PBS +0.05-0.1% Tween 20, gentel shaking; f. anti-rabbit-680 and anti-mouse-800 (both 1:1000 in LiCor block +0.05% Tween20, RT 1 h, gentle shaking, no light. LI-COR: 0.2% to reduce background; g. wash×4 with PBS+0.05% Tween 20, gental shaking; h. add 100 μL or 25 μL of PBS to each well and read on CLX plate reader. The relative ER percentage in treated cells were obtained by comparing the values of treated wells to those in untreated and DMSO-treated wells as 100%.

ER [3] = molecular target: T1, ER; experiment: Western blot analysis (Compounds B1-B278); details: ER degradation by traditional Western blot; DC50 classes
How it was run: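 Relative target-protein levels come from densitometry of immunoblots, normalized to GAPDH. Lysates from treated cells were prepared in RIPA buffer (pH 7.6) containing protease inhibitors, and equal protein amounts, checked by BCA, were separated on 10% gels and blotted onto PVDF.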

T1 sequence (P03372 whole entry): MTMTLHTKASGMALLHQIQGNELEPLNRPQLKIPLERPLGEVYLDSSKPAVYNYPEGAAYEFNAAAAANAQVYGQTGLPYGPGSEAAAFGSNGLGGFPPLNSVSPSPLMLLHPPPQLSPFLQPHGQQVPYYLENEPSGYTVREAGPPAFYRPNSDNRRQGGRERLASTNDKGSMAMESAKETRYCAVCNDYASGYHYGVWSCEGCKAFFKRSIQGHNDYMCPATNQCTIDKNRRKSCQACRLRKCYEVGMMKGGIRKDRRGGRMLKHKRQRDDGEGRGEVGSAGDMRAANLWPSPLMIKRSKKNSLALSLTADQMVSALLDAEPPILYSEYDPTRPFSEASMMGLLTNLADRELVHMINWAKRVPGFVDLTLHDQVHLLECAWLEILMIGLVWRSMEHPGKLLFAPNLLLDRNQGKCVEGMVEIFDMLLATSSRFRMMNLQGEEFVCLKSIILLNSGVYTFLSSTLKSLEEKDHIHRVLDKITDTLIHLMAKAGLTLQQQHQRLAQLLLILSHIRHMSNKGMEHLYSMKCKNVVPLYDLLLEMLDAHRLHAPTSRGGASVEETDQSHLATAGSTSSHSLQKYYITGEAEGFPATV

Compound	DC50 (ER [2]) [nM]	Traditional Western Degradation Potency (ER [3])	IC50 [1] [nM]
C[C@@H]1Cc2c([nH]c3ccccc23)[C@@H](c2c(F)cc(N3CC(C(=O)N4CCN5c6ccc7c(c6OC[C@H]5C4)CN(C4CCC(=O)NC4=O)C7=O)C3)cc2F)N1CC(F)F (mixture of isomers) [Compound B251, 3-((RS)-7-(1-(4-((1R,3R)-2-(2,2-difluoroethyl)-3-methyl-2,3,4,9-tetrahydro-1H-pyrido[3,4-b]indol-1-yl)-3,5-difluorophenyl)azetidine-3-carbonyl)-1-oxo-1,3,5,5a,6,7,8,9-octahydro-2H-pyrazino[1′,2′:4,5][1,4]oxazino[2,3-e]isoindol-2-yl)piperidine-2,6-dione]	10 to 100		< 1
C[C@@H]1Cc2c([nH]c3ccccc23)[C@@H](c2cnc(N3CC4(CCC(N5CCN6c7cc8c(cc7OC[C@@H]6C5)C(=O)N(C5CCC(=O)NC5=O)C8)CC4)C3)nc2)N1CC(F)F (stereo partly drawn) [Compound 1B32, 3-((S)-3-(2-(5-((1R,3R)-2-(2,2-difluoroethyl)-3-methyl-2,3,4,9-tetrahydro-1H-pyrido[3,4-b]indol-1-yl)pyrimidin-2-yl)-2-azaspiro[3.5]nonan-7-yl)-8-oxo-1,2,3,4,4a,5,8,10-octahydro-9H-pyrazino[1′,2′:4,5][1,4]oxazino[2,3-f]isoindol-9-yl)piperidine-2,6-dione]			> 10
C[C@@H]1Cc2c([nH]c3ccccc23)[C@@H](c2cnc(N3CC(CCN4CCN5c6cc7c(cc6OC[C@@H]5C4)C(=O)N(C4CCC(=O)NC4=O)C7)C3)nc2)N1CC(F)F (stereo partly drawn) [Compound B131, 3-((S)-3-(2-(1-(5-((1R,3R)-2-(2,2-difluoroethyl)-3-methyl-2,3,4,9-tetrahydro-1H-pyrido[3,4-b]indol-1-yl)pyrimidin-2-yl)azetidin-3-yl)ethyl)-8-oxo-1,2,3,4,4a,5,8,10-octahydro-9H-pyrazino[1,2′:4,5][1,4]oxazino[2,3-f]isoindol-9-yl)piperidine-2,6-dione]			> 10
C[C@@H]1Cc2c([nH]c3ccccc23)[C@@H](c2cnc(N3CC4(CC(CN5CCN6c7cc8c(cc7OC[C@@H]6C5)C(=O)N(C5CCC(=O)NC5=O)C8)C4)C3)nc2)N1CC(F)F (stereo partly drawn) [Compound B133, 3-((S)-3-((2-(5-((1R,3R)-2-(2,2-difluoroethyl)-3-methyl-2,3,4,9-tetrahydro-1H-pyrido[3,4-b]indol-1-yl)pyrimidin-2-yl)-2-azaspiro[3.3]heptan-6-yl)methyl)-8-oxo-1,2,3,4,4a,5,8,10-octahydro-9H-pyrazino[1′,2′:4,5][1,4]oxazino[2,3-f]isoindol-9-yl)piperidine-2,6-dione]			1 to 10
COc1c2c(cc3c1CN(C1CCC(=O)NC1=O)C3=O)CN(CC(=O)N1CCC3(CC1)CCN(c1ncc([C@@H]4c5[nH]c6ccccc6c5C[C@@H](C)N4CC(F)F)cn1)CC3)C2 (stereo partly drawn) [Compound B134, 3-(6-(2-(9-(5-((1R,3R)-2-(2,2-difluoroethyl)-3-methyl-2,3,4,9-tetrahydro-1H-pyrido[3,4-b]indol-1-yl)pyrimidin-2-yl)-3,9-diazaspiro[5.5]undecan-3-yl)-2-oxoethyl)-4-methoxy-1-oxo-3,5,6,7-tetrahydropyrrolo[3,4-f]isoindol-2(1H)-yl)piperidine-2,6-dione]			< 1
C[C@@H]1Cc2c([nH]c3ccccc23)[C@@H](c2c(F)cc(C3=CCC(C(=O)N4CCC(N5Cc6cc7c(cc6C5)C(=O)N(C5CCC(=O)NC5=O)C7=O)CC4)CC3)cc2F)N1CC1(F)CC1 (stereo partly drawn) [Compound B249, 6-(1-(3′,5′-difluoro-4′-((1R,3R)-2-((1-fluorocyclopropyl)methyl)-3-methyl-2,3,4,9-tetrahydro-1H-pyrido[3,4-b]indol-1-yl)-2,3,4,5-tetrahydro-[1,1′-biphenyl]-4-carbonyl)piperidin-4-yl)-2-(2,6-dioxopiperidin-3-yl)-6,7-dihydropyrrolo[3,4-f]isoindole-1,3(2H,5H)-dione]		C (“C”: >100 nM)	
COc1cc(N2CCC3(CC2)CC(CN2CCN4c5ccc6c(c5OC[C@H]4C2)CN(C2CCC(=O)NC2=O)C6=O)CO3)ccc1[C@@H]1c2[nH]c3ccccc3c2C[C@@H](C)N1CC(C)(C)F (stereo partly drawn) [Compound B265, 3-((5aR)-7-((8-(4-((1R,3R)-2-(2-fluoro-2-methylpropyl)-3-methyl-2,3,4,9-tetrahydro-1H-pyrido[3,4-b]indol-1-yl)-3-methoxyphenyl)-1-oxa-8-azaspiro[4.5]decan-3-yl)methyl)-1-oxo-1,3,5,5a,6,7,8,9-octahydro-2H-pyrazino[1′,2′:4,5][1,4]oxazino[2,3-e]isoindol-2-yl)piperidine-2,6-dione]	10 to 100		

Further lines, with some results ahead:

DC50 (ER [2]) [nM]	Traditional Western Degradation Potency (ER [3])	Compound	IC50 [1] [nM]
10 to 100		C[C@@H]1Cc2c([nH]c3ccccc23)[C@@H](c2c(F)cc(N3CCC(C(=O)N4CCN5c6ccc7c(c6OC[C@H]5C4)CN(C4CCC(=O)NC4=O)C7=O)CC3)cc2F)N1CC(C)(F)F (mixture of isomers) [Compound B252, 3-((RS)-7-(1-(4-((1R,3R)-2-(2,2-difluoropropyl)-3-methyl-2,3,4,9-tetrahydro-1H-pyrido[3,4-b]indol-1-yl)-3,5-difluorophenyl)piperidine-4-carbonyl)-1-oxo-1,3,5,5a,6,7,8,9-octahydro-2H-pyrazino[1′,2′:4,5][1,4]oxazino[2,3-e]isoindol-2-yl)piperidine-2,6-dione]	
10 to 100		C[C@@H]1Cc2c([nH]c3ccccc23)[C@@H](c2c(F)cc(N3CCC(CN4CCN5c6ccc7c(c6OC[C@H]5C4)CN(C4CCC(=O)NC4=O)C7=O)CC3)cc2F)N1CC(F)F (mixture of isomers) [Compound B253, 3-((RS)-7-((1-(4-((1R,3R)-2-(2,2-difluoroethyl)-3-methyl-2,3,4,9-tetrahydro-1H-pyrido[3,4-b]indol-1-yl)-3,5-difluorophenyl)piperidin-4-yl)methyl)-1-oxo-1,3,5,5a,6,7,8,9-octahydro-2H-pyrazino[1′,2′:4,5][1,4]oxazino[2,3-e]isoindol-2-yl)piperidine-2,6-dione]	< 1
> 100		C[C@@H]1Cc2c([nH]c3ccccc23)[C@@H](c2c(F)cc(N3CCN(CC(=O)N4CCN5c6ccc7c(c6OC[C@H]5C4)CN(C4CCC(=O)NC4=O)C7=O)CC3)cc2F)N1CC(F)F (stereo partly drawn) [Compound B152, 3-((R)-7-(2-(4-(4-((1R,3R)-2-(2,2-difluoroethyl)-3-methyl-2,3,4,9-tetrahydro-1H-pyrido[3,4-b]indol-1-yl)-3,5-difluorophenyl)piperazin-1-yl)acetyl)-1-oxo-1,3,5,5a,6,7,8,9-octahydro-2H-pyrazino[1′,2′:4,5][1,4]oxazino[2,3-e]isoindol-2-yl)piperidine-2,6-dione]	
	C (“C”: >100 nM)	C[C@@H]1Cc2c([nH]c3ccccc23)[C@@H](c2ncc(C3=CCC(C(=O)N4CCC(N5Cc6cc7c(cc6C5)C(=O)N(C5CCC(=O)NC5=O)C7=O)CC4)CC3)cc2F)N1CC(C)(C)F (stereo partly drawn) [Compound B248, 2-(2,6-dioxopiperidin-3-yl)-6-(1-(4-(5-fluoro-6-((1S,3R)-2-(2-fluoro-2-methylpropyl)-3-methyl-2,3,4,9-tetrahydro-1H-pyrido[3,4-b]indol-1-yl)pyridin-3-yl)cyclohex-3-ene-1-carbonyl)piperidin-4-yl)-6,7-dihydropyrrolo[3,4-f]isoindole-1,3(2H,5H)-dione]	
	C (“C”: >100 nM)	C[C@@H]1Cc2c([nH]c3ccccc23)[C@@H](c2ccc(C3=CCC(C(=O)N4CCC(N5Cc6cc7c(cc6C5)C(=O)N(C5CCC(=O)NC5=O)C7=O)CC4)CC3)cc2F)N1CC1(F)CC1 (stereo partly drawn) [Compound B250, 2-(2,6-dioxopiperidin-3-yl)-6-(1-(3′-fluoro-4′-((1R,3R)-2-((1-fluorocyclopropyl)methyl)-3-methyl-2,3,4,9-tetrahydro-1H-pyrido[3,4-b]indol-1-yl)-2,3,4,5-tetrahydro-[1,1′-biphenyl]-4-carbonyl)piperidin-4-yl)-6,7-dihydropyrrolo[3,4-f]isoindole-1,3(2H,5H)-dione]	

Source: US20260007681A1, “INDOLE DERIVATIVES AS ESTROGEN RECEPTOR DEGRADERS” (REGENTS OF THE UNIVERSITY OF MICHIGAN, priority 2022, published 2026)
